In ChEMBL document CHEMBL5500340, “Synthesis and biological activity of thiophene bioisosteres of natural styryl lactone goniofufurone and related compounds” (Eur J Med Chem, 2024):

Tests used:
A549 [1] = assay: Antiproliferative activity against human A549 cells by MTT colorimetric assay; format: functional, cell-based
MRC5 = assay: Antiproliferative activity against human MRC5 cells by MTT colorimetric assay; format: functional, cell-based
Jurkat = assay: Antiproliferative activity against human Jurkat cells by MTT colorimetric assay; format: functional, cell-based
K562 [2] = assay: Antiproliferative activity against human K562 cells by MTT colorimetric assay; format: functional, cell-based
MCF7 = assay: Antiproliferative activity against human MCF7 cells by MTT colorimetric assay; format: functional, cell-based
HL-60 = assay: Antiproliferative activity against human HL-60 cells by MTT colorimetric assay; format: functional, cell-based
Raji [3] = assay: Antiproliferative activity against human Raji cells by MTT colorimetric assay; format: functional, cell-based
MDA-MB-231 = assay: Antiproliferative activity against human MDA-MB-231 cells by MTT colorimetric assay; format: functional, cell-based
Raji [4] = assay: Potency index, ratio of Doxorubicin IC50 to test compound IC50 for antiproliferative activity against human Raji cells by MTT colorimetric assay; format: functional
HeLa = assay: Antiproliferative activity against human HeLa cells by MTT colorimetric assay; format: functional, cell-based
K562 [5] = assay: Induction of apoptosis in human K562 cells assessed as morphological changes measured after 72 hrs relative to control; format: functional
Cell membrane = assay: Induction of cell membrane damage in human K562 cells measured after 72 hrs by acridine orange and ethidium bromide staining based analysis relative to control; format: cell membranes
K562 [6] = assay: Induction of cell cycle arrest in human K562 cells assessed as decrease in accumulation of cells at S phase measured after 72 hrs by PI staining based flow cytometry analysis relative to control; format: functional; design: scale not given: the % may be the effect or the level left
K562 [7] = assay: Induction of cell cycle arrest in human K562 cells assessed as decrease in accumulation of cells at subG1 phase measured after 72 hrs by PI staining based flow cytometry analysis relative to control; format: functional; design: scale not given: the % may be the effect or the level left
A549 [8] = assay: Potency index, ratio of Doxorubicin IC50 to test compound IC50 for antiproliferative activity against human A549 cells by MTT colorimetric assay; format: functional
K562 [9] = assay: Induction of cell cycle arrest in human K562 cells assessed as increase in accumulation of cells at G2/M phase measured after 72 hrs by PI staining based flow cytometry analysis relative to control; format: functional

SMILES: CC1(C)O[C@H]2O[C@H]([C@@H](O)c3cccs3)[C@H](O)[C@H]2O1
- IC50 (A549 [1]): 6.58 µM
- IC50 (MRC5): > 100 µM
- IC50 (Jurkat): 4.41 µM
- IC50 (K562 [2]): 1.02 µM
- IC50 (MCF7): 2.63 µM
- IC50 (HL-60): 8.46 µM
- IC50 (Raji [3]): 1.36 µM
- IC50 (MDA-MB-231): 11.6 µM
- Ratio IC50 (Raji [4]): 2
- IC50 (HeLa): 1.59 µM

SMILES: O=C(/C=C/c1ccc(F)cc1)O[C@@H]1[C@H]2OC(=O)C[C@H]2O[C@@H]1[C@H](OC(=O)/C=C/c1ccc(F)cc1)c1cccs1
- IC50 (A549 [1]): 9.28 µM
- IC50 (MRC5): > 100 µM
- IC50 (Jurkat): 10.7 µM
- IC50 (K562 [2]): 0.99 µM
- IC50 (MCF7): 5.91 µM
- IC50 (HL-60): 14.7 µM
- IC50 (Raji [3]): 22.1 µM
- IC50 (MDA-MB-231): 9.55 µM
- IC50 (HeLa): 4.32 µM

SMILES: O=C(/C=C/c1ccccc1)O[C@@H]1[C@H]2OC(=O)C[C@H]2O[C@@H]1[C@H](OC(=O)/C=C/c1ccccc1)c1cccs1
- IC50 (A549 [1]): 35.6 µM
- IC50 (MRC5): > 100 µM
- IC50 (Jurkat): 10.3 µM
- IC50 (K562 [2]): 8.36 µM
- IC50 (MCF7): 10.8 µM
- IC50 (HL-60): 18.2 µM
- IC50 (Raji [3]): 11.1 µM
- IC50 (MDA-MB-231): 12.3 µM
- IC50 (HeLa): 23.8 µM

SMILES: O=C1C[C@H]2O[C@H](C(=O)c3cccs3)[C@H](O)[C@H]2O1
- IC50 (A549 [1]): 14.9 µM
- IC50 (MRC5): > 100 µM
- IC50 (Jurkat): 25.3 µM
- IC50 (K562 [2]): 18.4 µM
- IC50 (MCF7): 23.4 µM
- IC50 (HL-60): 39.6 µM
- IC50 (Raji [3]): 11.4 µM
- IC50 (MDA-MB-231): 8.93 µM
- IC50 (HeLa): 12.4 µM

SMILES: O=C1C[C@H]2O[C@H]([C@H](O)c3cccs3)[C@H](O)[C@H]2O1
- Activity (K562 [5]): 196.5%
- IC50 (A549 [1]): 1.2 µM
- IC50 (MRC5): > 100 µM
- Activity (Cell membrane): 40.6%
- IC50 (Jurkat): 1.01 µM
- IC50 (K562 [2]): 0.03 µM
- IC50 (MCF7): 3.38 µM
- IC50 (HL-60): 2.07 µM
- IC50 (Raji [3]): 5.97 µM
- IC50 (MDA-MB-231): 2.88 µM
- Activity (K562 [6]): 24.2%
- Activity (K562 [7]): >85%
- Ratio IC50 (A549 [8]): 4
- IC50 (HeLa): 0.11 µM
- Activity (K562 [9]): 31.2%

SMILES: CC1(C)O[C@H]2O[C@H]([C@H](O)c3cccs3)[C@H](O)[C@H]2O1
- IC50 (A549 [1]): 7.32 µM
- IC50 (MRC5): > 100 µM
- IC50 (Jurkat): 1.06 µM
- IC50 (K562 [2]): 0.89 µM
- IC50 (MCF7): 4.34 µM
- IC50 (HL-60): 1.05 µM
- IC50 (Raji [3]): 3.45 µM
- IC50 (MDA-MB-231): 8.12 µM
- IC50 (HeLa): 2.85 µM

SMILES: O=C(c1cccs1)[C@H]1OC(O)[C@H](O)[C@H]1O (some centres undefined)
- IC50 (A549 [1]): 5.61 µM
- IC50 (MRC5): > 100 µM
- IC50 (Jurkat): 34 µM
- IC50 (K562 [2]): 6.34 µM
- IC50 (MCF7): 15.6 µM
- IC50 (HL-60): 8.08 µM
- IC50 (Raji [3]): 20.5 µM
- IC50 (MDA-MB-231): 16.3 µM
- IC50 (HeLa): 5.58 µM

SMILES: O=C1C[C@H]2O[C@H]([C@H](O)c3ccccc3)[C@H](O)[C@H]2O1
- Activity (K562 [5]): 145.1%
- IC50 (MRC5): > 100 µM
- Activity (Cell membrane): 31.5%
- IC50 (HL-60): > 100 µM

SMILES: O=C1C[C@H]2O[C@H]([C@@H](O)c3cccs3)[C@H](O)[C@H]2O1
- IC50 (A549 [1]): 18.8 µM
- IC50 (MRC5): 95.6 µM
- IC50 (Jurkat): 2.65 µM
- IC50 (K562 [2]): 5.78 µM
- IC50 (MCF7): 44.9 µM
- IC50 (HL-60): 13 µM
- IC50 (Raji [3]): 15 µM
- IC50 (MDA-MB-231): 98.8 µM
- IC50 (HeLa): 6.21 µM

SMILES: O=C1C[C@H]2O[C@@H](C(=O)c3cccs3)[C@H](O)[C@H]2O1
- IC50 (A549 [1]): 18.4 µM
- IC50 (MRC5): > 100 µM
- IC50 (Jurkat): 1.69 µM
- IC50 (K562 [2]): 2.67 µM
- IC50 (MCF7): 1.02 µM
- IC50 (HL-60): 1.09 µM
- IC50 (Raji [3]): 5.36 µM
- IC50 (MDA-MB-231): 5.21 µM
- IC50 (HeLa): 3.89 µM

SMILES: O=C1C[C@H]2O[C@H]([C@@H](O)c3ccccc3)[C@H](O)[C@H]2O1
- Activity (K562 [5]): 254.2%
- Activity (Cell membrane): 57.3%
- Activity (K562 [7]): >55%

SMILES: O=C(/C=C/c1ccc(F)cc1)O[C@H](c1cccs1)[C@H]1O[C@@H]2CC(=O)O[C@@H]2[C@H]1O
- IC50 (A549 [1]): 13.3 µM
- IC50 (MRC5): > 100 µM
- IC50 (Jurkat): 19.7 µM
- IC50 (K562 [2]): 6.56 µM
- IC50 (MCF7): 10.5 µM
- IC50 (HL-60): 18.9 µM
- IC50 (Raji [3]): 23.9 µM
- IC50 (MDA-MB-231): 2.11 µM
- IC50 (HeLa): 4.63 µM
